What follows are molecules tested against CHUK (human) (UniProt O15111) (assay: KINOMEscan competition binding). Conditions: compound 10.0 µM.
Sequence of CHUK (human) (O15111 whole entry, looked up): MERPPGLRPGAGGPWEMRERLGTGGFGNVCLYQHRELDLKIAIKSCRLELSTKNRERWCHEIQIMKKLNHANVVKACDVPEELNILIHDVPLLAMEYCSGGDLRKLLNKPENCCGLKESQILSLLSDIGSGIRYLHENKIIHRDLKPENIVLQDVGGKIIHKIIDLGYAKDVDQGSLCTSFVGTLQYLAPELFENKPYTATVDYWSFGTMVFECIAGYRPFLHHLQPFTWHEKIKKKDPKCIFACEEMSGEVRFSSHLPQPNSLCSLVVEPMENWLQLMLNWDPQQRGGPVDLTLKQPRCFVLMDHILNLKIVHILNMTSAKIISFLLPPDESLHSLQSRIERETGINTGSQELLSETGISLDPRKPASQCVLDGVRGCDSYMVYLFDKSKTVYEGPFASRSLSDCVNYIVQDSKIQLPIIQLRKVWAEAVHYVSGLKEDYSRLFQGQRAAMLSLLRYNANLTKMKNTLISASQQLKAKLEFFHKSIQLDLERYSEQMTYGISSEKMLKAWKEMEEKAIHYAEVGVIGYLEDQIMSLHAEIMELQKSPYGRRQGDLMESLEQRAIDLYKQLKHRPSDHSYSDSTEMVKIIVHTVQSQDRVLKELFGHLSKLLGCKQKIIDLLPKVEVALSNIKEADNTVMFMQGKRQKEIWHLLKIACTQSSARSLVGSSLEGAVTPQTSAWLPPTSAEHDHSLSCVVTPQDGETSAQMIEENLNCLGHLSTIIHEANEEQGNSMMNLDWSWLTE

Row | SMILES | kinase still bound, per cent of control [%]
1 | CCN1CCN(Cc2ccc(NC(=O)c3ccc(C)c(/C=C/c4cnc(Nc5cc(N6CCNCC6)nc(C)n5)cn4)c3)cc2C(F)(F)F)CC1 | 0
2 | COc1cc(N2CCC(N3CCN(C)CC3)CC2)ccc1Nc1ncc(Cl)c(Nc2ccccc2S(=O)(=O)C(C)C)n1 | 40
3 | CCOc1cc(N2CCC(N3CCCCC3)CC2)ccc1Nc1nc(Nc2ccccc2S(=O)(=O)C(C)C)c2cn[nH]c2n1 | 100
4 | CCN1CCN(Cc2ccc(NC(=O)c3ccc(C)c(Oc4ccnc5[nH]ccc45)c3)cc2C(F)(F)F)CC1 | 0.95

Each molecule was assayed against DYRK1B (human) (UniProt Q9Y463) (assay: KINOMEscan competition binding). Conditions: compound 10.0 µM.

Row | SMILES | kinase still bound, per cent of control [%]
5 | CCN1CCN(Cc2ccc(NC(=O)c3ccc(C)c(/C=C/c4cnc(Nc5cc(N6CCNCC6)nc(C)n5)cn4)c3)cc2C(F)(F)F)CC1 | 76
6 | COc1cc(N2CCC(N3CCN(C)CC3)CC2)ccc1Nc1ncc(Cl)c(Nc2ccccc2S(=O)(=O)C(C)C)n1 | 40
7 | CCOc1cc(N2CCC(N3CCCCC3)CC2)ccc1Nc1nc(Nc2ccccc2S(=O)(=O)C(C)C)c2cn[nH]c2n1 | 42

The molecules below were run against CHEK2 (human) (UniProt O96017) (assay: KINOMEscan competition binding). Conditions: compound 10.0 µM.
Sequence of CHEK2 (human) (O96017 whole entry, looked up): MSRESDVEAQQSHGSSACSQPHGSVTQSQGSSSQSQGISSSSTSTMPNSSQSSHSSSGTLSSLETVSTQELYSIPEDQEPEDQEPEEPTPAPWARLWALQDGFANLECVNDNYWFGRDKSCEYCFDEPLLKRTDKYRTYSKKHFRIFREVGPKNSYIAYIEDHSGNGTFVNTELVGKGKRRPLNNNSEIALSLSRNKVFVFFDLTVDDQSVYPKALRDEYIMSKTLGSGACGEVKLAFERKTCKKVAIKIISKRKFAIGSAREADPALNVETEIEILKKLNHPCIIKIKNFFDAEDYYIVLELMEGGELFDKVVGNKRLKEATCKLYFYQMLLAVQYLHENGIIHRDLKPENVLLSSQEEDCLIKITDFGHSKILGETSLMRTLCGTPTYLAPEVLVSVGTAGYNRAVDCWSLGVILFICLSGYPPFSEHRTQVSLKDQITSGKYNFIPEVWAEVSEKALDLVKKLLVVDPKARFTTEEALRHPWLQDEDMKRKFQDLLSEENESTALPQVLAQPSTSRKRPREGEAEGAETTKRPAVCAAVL

Row | SMILES | kinase still bound, per cent of control [%]
8 | CCN1CCN(Cc2ccc(NC(=O)c3ccc(C)c(/C=C/c4cnc(Nc5cc(N6CCNCC6)nc(C)n5)cn4)c3)cc2C(F)(F)F)CC1 | 83
9 | COc1cc(N2CCC(N3CCN(C)CC3)CC2)ccc1Nc1ncc(Cl)c(Nc2ccccc2S(=O)(=O)C(C)C)n1 | 0
10 | CCOc1cc(N2CCC(N3CCCCC3)CC2)ccc1Nc1nc(Nc2ccccc2S(=O)(=O)C(C)C)c2cn[nH]c2n1 | 23

Each molecule was assayed against MAP4K2 (human) (UniProt Q12851) (assay: KINOMEscan competition binding). Conditions: compound 10.0 µM.
Sequence of MAP4K2 (human) (Q12851 whole entry, looked up): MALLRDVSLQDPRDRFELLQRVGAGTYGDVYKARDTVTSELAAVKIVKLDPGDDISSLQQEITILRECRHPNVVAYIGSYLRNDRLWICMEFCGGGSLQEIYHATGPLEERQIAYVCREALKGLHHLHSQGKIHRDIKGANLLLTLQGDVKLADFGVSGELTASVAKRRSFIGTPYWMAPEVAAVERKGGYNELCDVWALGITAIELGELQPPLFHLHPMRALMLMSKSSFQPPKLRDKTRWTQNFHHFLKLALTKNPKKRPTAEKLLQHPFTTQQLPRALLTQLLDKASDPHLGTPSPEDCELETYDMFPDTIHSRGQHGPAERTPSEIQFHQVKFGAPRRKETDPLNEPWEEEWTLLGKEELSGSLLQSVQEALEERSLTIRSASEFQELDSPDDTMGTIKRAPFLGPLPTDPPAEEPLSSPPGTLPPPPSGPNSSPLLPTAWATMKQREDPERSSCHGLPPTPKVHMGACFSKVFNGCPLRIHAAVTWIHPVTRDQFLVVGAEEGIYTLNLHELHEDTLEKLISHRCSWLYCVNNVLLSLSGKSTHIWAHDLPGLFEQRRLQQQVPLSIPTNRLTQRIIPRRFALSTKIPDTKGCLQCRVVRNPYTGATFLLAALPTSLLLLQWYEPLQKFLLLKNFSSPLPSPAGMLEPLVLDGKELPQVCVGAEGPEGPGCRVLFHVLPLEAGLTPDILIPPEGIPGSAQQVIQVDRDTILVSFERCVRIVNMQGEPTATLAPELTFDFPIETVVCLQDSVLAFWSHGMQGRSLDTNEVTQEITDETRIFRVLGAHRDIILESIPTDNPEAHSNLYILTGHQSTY

Row | SMILES | kinase still bound, per cent of control [%]
11 | CCN1CCN(Cc2ccc(NC(=O)c3ccc(C)c(/C=C/c4cnc(Nc5cc(N6CCNCC6)nc(C)n5)cn4)c3)cc2C(F)(F)F)CC1 | 0.1
12 | COc1cc(N2CCC(N3CCN(C)CC3)CC2)ccc1Nc1ncc(Cl)c(Nc2ccccc2S(=O)(=O)C(C)C)n1 | 9.4
13 | CCOc1cc(N2CCC(N3CCCCC3)CC2)ccc1Nc1nc(Nc2ccccc2S(=O)(=O)C(C)C)c2cn[nH]c2n1 | 97
14 | CCN1CCN(Cc2ccc(NC(=O)c3ccc(C)c(Oc4ccnc5[nH]ccc45)c3)cc2C(F)(F)F)CC1 | 0.3

Each molecule was assayed against MAP3K11 (human) (UniProt Q16584) (assay: KINOMEscan competition binding). Conditions: compound 10.0 µM.
Sequence of MAP3K11 (human) (Q16584 whole entry, looked up): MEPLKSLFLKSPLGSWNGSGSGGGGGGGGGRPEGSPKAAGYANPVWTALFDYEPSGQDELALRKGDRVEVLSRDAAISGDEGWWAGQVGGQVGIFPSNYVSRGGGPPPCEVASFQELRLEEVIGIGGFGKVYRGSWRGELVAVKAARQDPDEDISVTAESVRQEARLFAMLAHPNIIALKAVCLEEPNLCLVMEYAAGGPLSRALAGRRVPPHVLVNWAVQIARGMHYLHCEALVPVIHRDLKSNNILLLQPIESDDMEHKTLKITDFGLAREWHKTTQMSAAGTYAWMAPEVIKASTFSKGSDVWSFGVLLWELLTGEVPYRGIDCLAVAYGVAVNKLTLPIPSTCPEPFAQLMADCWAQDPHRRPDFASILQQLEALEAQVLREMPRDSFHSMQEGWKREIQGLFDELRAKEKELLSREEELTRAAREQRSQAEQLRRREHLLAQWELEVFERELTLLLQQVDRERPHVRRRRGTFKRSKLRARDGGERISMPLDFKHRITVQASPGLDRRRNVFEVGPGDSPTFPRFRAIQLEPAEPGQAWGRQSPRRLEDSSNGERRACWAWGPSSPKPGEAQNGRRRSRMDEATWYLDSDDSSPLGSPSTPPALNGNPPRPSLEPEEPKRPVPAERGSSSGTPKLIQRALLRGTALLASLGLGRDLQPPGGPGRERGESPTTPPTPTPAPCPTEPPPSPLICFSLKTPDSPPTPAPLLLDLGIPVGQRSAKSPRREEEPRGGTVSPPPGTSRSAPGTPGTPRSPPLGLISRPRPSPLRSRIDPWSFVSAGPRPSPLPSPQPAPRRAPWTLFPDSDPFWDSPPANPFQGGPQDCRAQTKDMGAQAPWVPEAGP

Row | SMILES | kinase still bound, per cent of control [%]
15 | CCN1CCN(Cc2ccc(NC(=O)c3ccc(C)c(/C=C/c4cnc(Nc5cc(N6CCNCC6)nc(C)n5)cn4)c3)cc2C(F)(F)F)CC1 | 10
16 | COc1cc(N2CCC(N3CCN(C)CC3)CC2)ccc1Nc1ncc(Cl)c(Nc2ccccc2S(=O)(=O)C(C)C)n1 | 20
17 | CCOc1cc(N2CCC(N3CCCCC3)CC2)ccc1Nc1nc(Nc2ccccc2S(=O)(=O)C(C)C)c2cn[nH]c2n1 | 100

What follows are molecules tested against MYLK4 (human) (UniProt Q86YV6) (assay: KINOMEscan competition binding). Conditions: compound 10.0 µM.
Sequence of MYLK4 (human) (Q86YV6 whole entry, looked up): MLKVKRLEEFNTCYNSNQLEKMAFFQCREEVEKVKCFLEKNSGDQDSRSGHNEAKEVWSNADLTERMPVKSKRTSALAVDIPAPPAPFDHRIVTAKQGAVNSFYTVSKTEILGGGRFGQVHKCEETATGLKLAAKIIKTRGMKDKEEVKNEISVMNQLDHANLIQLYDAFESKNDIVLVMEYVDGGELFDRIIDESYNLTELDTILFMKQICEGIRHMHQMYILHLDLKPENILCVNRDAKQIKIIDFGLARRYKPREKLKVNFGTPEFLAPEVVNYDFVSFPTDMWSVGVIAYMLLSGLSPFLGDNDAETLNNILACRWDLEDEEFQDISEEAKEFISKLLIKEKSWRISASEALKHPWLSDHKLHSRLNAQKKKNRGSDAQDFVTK

Row | SMILES | kinase still bound, per cent of control [%]
18 | CCN1CCN(Cc2ccc(NC(=O)c3ccc(C)c(/C=C/c4cnc(Nc5cc(N6CCNCC6)nc(C)n5)cn4)c3)cc2C(F)(F)F)CC1 | 100
19 | COc1cc(N2CCC(N3CCN(C)CC3)CC2)ccc1Nc1ncc(Cl)c(Nc2ccccc2S(=O)(=O)C(C)C)n1 | 40
20 | CCOc1cc(N2CCC(N3CCCCC3)CC2)ccc1Nc1nc(Nc2ccccc2S(=O)(=O)C(C)C)c2cn[nH]c2n1 | 100

These molecules were tested against AKT3 (human) (UniProt Q9Y243) (assay: KINOMEscan competition binding). Conditions: compound 10.0 µM.
Sequence of AKT3 (human) (Q9Y243 whole entry, looked up): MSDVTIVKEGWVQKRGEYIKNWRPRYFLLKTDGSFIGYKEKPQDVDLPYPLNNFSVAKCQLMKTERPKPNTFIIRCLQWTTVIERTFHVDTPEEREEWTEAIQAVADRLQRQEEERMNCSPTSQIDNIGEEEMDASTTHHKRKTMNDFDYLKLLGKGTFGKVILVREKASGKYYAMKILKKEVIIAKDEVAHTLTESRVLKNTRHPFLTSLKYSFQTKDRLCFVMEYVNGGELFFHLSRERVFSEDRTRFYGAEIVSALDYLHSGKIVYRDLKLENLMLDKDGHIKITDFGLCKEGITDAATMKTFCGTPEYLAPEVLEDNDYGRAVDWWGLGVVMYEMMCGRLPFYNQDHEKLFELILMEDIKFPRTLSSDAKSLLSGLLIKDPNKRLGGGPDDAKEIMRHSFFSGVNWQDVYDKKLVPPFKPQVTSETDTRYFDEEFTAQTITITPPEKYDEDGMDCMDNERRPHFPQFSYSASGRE

Row | SMILES | kinase still bound, per cent of control [%]
21 | CCN1CCN(Cc2ccc(NC(=O)c3ccc(C)c(/C=C/c4cnc(Nc5cc(N6CCNCC6)nc(C)n5)cn4)c3)cc2C(F)(F)F)CC1 | 81
22 | COc1cc(N2CCC(N3CCN(C)CC3)CC2)ccc1Nc1ncc(Cl)c(Nc2ccccc2S(=O)(=O)C(C)C)n1 | 40
23 | CCOc1cc(N2CCC(N3CCCCC3)CC2)ccc1Nc1nc(Nc2ccccc2S(=O)(=O)C(C)C)c2cn[nH]c2n1 | 100

What follows are molecules tested against TEC (human) (UniProt P42680) (assay: KINOMEscan competition binding). Conditions: compound 10.0 µM.
Sequence of TEC (human) (P42680 whole entry, looked up): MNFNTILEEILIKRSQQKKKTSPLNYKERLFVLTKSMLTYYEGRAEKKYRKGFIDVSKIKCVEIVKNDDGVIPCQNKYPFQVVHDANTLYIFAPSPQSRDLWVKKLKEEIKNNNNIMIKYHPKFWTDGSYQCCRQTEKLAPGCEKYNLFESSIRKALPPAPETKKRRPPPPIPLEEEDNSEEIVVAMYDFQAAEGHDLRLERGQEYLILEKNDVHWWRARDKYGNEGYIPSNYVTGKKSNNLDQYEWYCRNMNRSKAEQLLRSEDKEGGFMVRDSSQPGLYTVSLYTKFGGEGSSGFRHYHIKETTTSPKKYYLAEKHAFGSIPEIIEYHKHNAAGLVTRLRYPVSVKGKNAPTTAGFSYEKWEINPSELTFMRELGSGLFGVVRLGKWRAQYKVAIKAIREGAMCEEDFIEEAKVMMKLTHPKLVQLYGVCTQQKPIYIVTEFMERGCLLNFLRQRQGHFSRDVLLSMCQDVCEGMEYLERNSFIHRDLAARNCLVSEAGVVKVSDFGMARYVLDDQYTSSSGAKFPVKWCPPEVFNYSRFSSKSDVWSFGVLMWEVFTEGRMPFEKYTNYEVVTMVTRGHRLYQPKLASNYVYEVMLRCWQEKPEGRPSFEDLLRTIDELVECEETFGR

Row | SMILES | kinase still bound, per cent of control [%]
24 | CCN1CCN(Cc2ccc(NC(=O)c3ccc(C)c(/C=C/c4cnc(Nc5cc(N6CCNCC6)nc(C)n5)cn4)c3)cc2C(F)(F)F)CC1 | 24
25 | COc1cc(N2CCC(N3CCN(C)CC3)CC2)ccc1Nc1ncc(Cl)c(Nc2ccccc2S(=O)(=O)C(C)C)n1 | 0.7
26 | CCOc1cc(N2CCC(N3CCCCC3)CC2)ccc1Nc1nc(Nc2ccccc2S(=O)(=O)C(C)C)c2cn[nH]c2n1 | 98

The molecules below were run against RIPK2 (human) (UniProt O43353) (assay: KINOMEscan competition binding). Conditions: compound 10.0 µM.
Sequence of RIPK2 (human) (O43353 whole entry, looked up): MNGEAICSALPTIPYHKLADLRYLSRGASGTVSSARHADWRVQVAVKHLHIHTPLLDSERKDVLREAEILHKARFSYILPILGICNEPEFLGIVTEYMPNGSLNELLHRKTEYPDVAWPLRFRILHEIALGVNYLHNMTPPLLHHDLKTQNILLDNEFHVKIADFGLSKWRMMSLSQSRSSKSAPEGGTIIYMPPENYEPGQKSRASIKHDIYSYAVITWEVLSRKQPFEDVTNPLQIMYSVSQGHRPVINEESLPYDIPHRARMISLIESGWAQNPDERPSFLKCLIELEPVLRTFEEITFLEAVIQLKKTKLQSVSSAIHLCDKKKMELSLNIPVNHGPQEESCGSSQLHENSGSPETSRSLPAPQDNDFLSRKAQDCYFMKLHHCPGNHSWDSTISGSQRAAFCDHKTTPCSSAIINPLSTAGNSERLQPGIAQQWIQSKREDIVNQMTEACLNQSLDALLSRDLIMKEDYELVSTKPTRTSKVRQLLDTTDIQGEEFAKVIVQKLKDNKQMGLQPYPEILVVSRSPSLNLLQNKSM

Row | SMILES | kinase still bound, per cent of control [%]
27 | CCN1CCN(Cc2ccc(NC(=O)c3ccc(C)c(/C=C/c4cnc(Nc5cc(N6CCNCC6)nc(C)n5)cn4)c3)cc2C(F)(F)F)CC1 | 5.4
28 | COc1cc(N2CCC(N3CCN(C)CC3)CC2)ccc1Nc1ncc(Cl)c(Nc2ccccc2S(=O)(=O)C(C)C)n1 | 40
29 | CCOc1cc(N2CCC(N3CCCCC3)CC2)ccc1Nc1nc(Nc2ccccc2S(=O)(=O)C(C)C)c2cn[nH]c2n1 | 100

The molecules below were run on PIK3CA (human), P42336 [E545K] (assay: KINOMEscan competition binding). Conditions: compound 10.0 µM.

Row | SMILES | kinase still bound, per cent of control [%]
30 | CCN1CCN(Cc2ccc(NC(=O)c3ccc(C)c(/C=C/c4cnc(Nc5cc(N6CCNCC6)nc(C)n5)cn4)c3)cc2C(F)(F)F)CC1 | 100
31 | COc1cc(N2CCC(N3CCN(C)CC3)CC2)ccc1Nc1ncc(Cl)c(Nc2ccccc2S(=O)(=O)C(C)C)n1 | 40
32 | CCOc1cc(N2CCC(N3CCCCC3)CC2)ccc1Nc1nc(Nc2ccccc2S(=O)(=O)C(C)C)c2cn[nH]c2n1 | 100

What follows are molecules tested against STK11 (human) (UniProt Q15831) (assay: KINOMEscan competition binding). Conditions: compound 10.0 µM.

Row | SMILES | kinase still bound, per cent of control [%]
33 | CCN1CCN(Cc2ccc(NC(=O)c3ccc(C)c(/C=C/c4cnc(Nc5cc(N6CCNCC6)nc(C)n5)cn4)c3)cc2C(F)(F)F)CC1 | 76
34 | COc1cc(N2CCC(N3CCN(C)CC3)CC2)ccc1Nc1ncc(Cl)c(Nc2ccccc2S(=O)(=O)C(C)C)n1 | 40

Source: the kinase profiling compilation of Christmann-Franck et al. (2016)
